Our source for the Activity values is ChEMBL document CHEMBL4627394, “A Grand Challenge. 3. Unbiased Phenotypic Function of Metabolites from Australia Plants Gloriosa superba and Alangium villosum against Parkinson's Disease” (J Nat Prod, 2020).

Calls of active or inactive are those of the source. The calls are words filed in the database; no cut-off is given here.

Data set [1] in a line: Cytotoxicity against Parkinson's disease patient derived human ONS cells assessed as effect on cell morphology parameters at 10 uM after 24 hrs by DAPI staining based fluorescence assay.
Data set [2] can be described thus: Cytotoxicity against Parkinson's disease patient derived human ONS cells assessed as effect on nucleus morphology parameters at 10 uM after 24 hrs by DAPI staining based fluorescence assay.
For a further data set, the species on record is Homo sapiens. Kind of data set: Effect on early endosome parameters in Parkinson's disease patient derived human ONS cells at 10 uM after 24 hrs by EEA1 staining based fluorescence assay. It is filed as functional.

With `COC1=C[C@@H]2C3=C([C@@H]2C1=O)[C@@H](NC=O)CCc1cc(OC)c(OC)c(OC)c13`, the Activity result in data set [1] and in data set [2] was “Non-Toxic” throughout.
On to `COC1=C[C@@H]2C3=C([C@@H]2C1=O)[C@@H](NC(C)=O)CCc1cc(OC)c(O[C@@H]2O[C@H](CO)[C@@H](O)[C@H](O)[C@H]2O)c(OC)c13`, for which the Activity entry in data set [1] and in data set [2] was “Non-Toxic” each time.
Consider `COc1cc2c(c(OC)c1OC)-c1ccc(OC)c(=O)cc1[C@@H](NC=O)CC2`, for which the Activity entry in data set [1] and in data set [2] was “Non-Toxic” throughout.
In the case of `COC1=C[C@@H]2C3=C([C@@H]2C1=O)[C@@H](NC=O)CCc1cc(OC)c(O[C@@H]2O[C@H](CO)[C@@H](O)[C@H](O)[C@H]2O)c(OC)c13`, the Activity result in data set [1] and in data set [2] was “Non-Toxic” in each case.
Consider `CC[C@H]1C[N@@+]2(O)CCc3cc(OC)c(OC)cc3[C@@H]2C[C@@H]1C[C@H]1NCCc2c1[nH]c1ccc(O)cc21.O=C(O)C(F)(F)F.O=C([O-])C(F)(F)F`, for which the outcome in the data set filed under Homo sapiens was Active. Moreover, the Activity entry in data set [1] and in data set [2] was “Non-Toxic” each time.
As for `CC[C@H]1CN2CCc3cc(O)c(OC)cc3[C@@H]2C[C@@H]1C[C@H]1NCCc2c1[nH]c1ccc(O)cc21.O=C(O)C(F)(F)F.O=C(O)C(F)(F)F`, the result in the data set listed under Homo sapiens was Active. In addition, the Activity entry in data set [1] and in data set [2] was “Non-Toxic” each time.
Consider `COC1=C[C@@H]2C3=C([C@@H]2C1=O)[C@@H](NC(C)=O)CCc1cc(OC)c(OC)c(OC)c13`, for which the Activity entry in data set [1] and in data set [2] was “Non-Toxic” each time.
`CC[C@H]1C[N@+]2(O)CCc3cc(O)c(OC)cc3[C@@H]2C[C@@H]1C[C@@H]1NCCc2c1[nH]c1ccc(O)cc21.O=C(O)C(F)(F)F.O=C([O-])C(F)(F)F`: the outcome in the data set listed under Homo sapiens was Active. Moreover, the Activity result in data set [1] and in data set [2] was “Non-Toxic” throughout.
For `CC[C@H]1CN2CCc3cc(O)c(OC)cc3[C@@H]2C[C@@H]1C[C@@H]1NCCc2c1[nH]c1ccc(O)cc21.O=C(O)C(F)(F)F.O=C(O)C(F)(F)F`, the outcome in the data set listed under Homo sapiens was Active. In addition, the Activity entry in data set [1] and in data set [2] was “Non-Toxic” throughout.
Take `COc1cc2c(c(OC)c1O)-c1ccc(OC)c(=O)cc1[C@@H](NC=O)CC2`: the Activity result in data set [1] and in data set [2] was “Non-Toxic” each time.
As to `COc1cc2c(c(OC)c1OC)-c1ccc(OC)c(=O)cc1[C@@H](NC(C)=O)CC2` [COLCHICINE], the Activity entry in data set [1] and in data set [2] was “Non-Toxic” in each case.
For the compound `CC[C@H]1CN2CCc3cc(O)c(OC)cc3[C@@H]2C[C@@H]1C[C@H]1NCCc2c1[nH]c1ccccc21.O=C(O)C(F)(F)F.O=C(O)C(F)(F)F`, the outcome in the data set filed under Homo sapiens was Active. For the same compound, the Activity entry in data set [1] and in data set [2] was “Non-Toxic” throughout.
On to `COC1=C[C@@H]2C3=C([C@@H]2C1=O)[C@@H](NC(C)=O)CCc1cc(O[C@@H]2O[C@H](CO)[C@@H](O)[C@H](O)[C@H]2O)c(O)c(OC)c13`, for which the Activity result in data set [1] and in data set [2] was “Non-Toxic” throughout.
In the case of `COC1=C[C@@H]2C3=C([C@@H]2C1=O)[C@@H](NC(C)=O)CCc1cc(OC)c(O)c(OC)c13`, the Activity result in data set [1] and in data set [2] was “Non-Toxic” throughout.
As to `CC[C@H]1CN2CCc3cc(OC)c(OC)cc3[C@@H]2C[C@@H]1C[C@H]1NCCc2c1[nH]c1ccc(O)cc21.O=C(O)C(F)(F)F.O=C(O)C(F)(F)F`, the result in the data set filed under Homo sapiens was Active. Besides, the Activity result in data set [1] and in data set [2] was “Non-Toxic” each time.
For the compound `CC[C@H]1C[N@+]2(O)CCc3cc(OC)c(OC)cc3[C@@H]2C[C@@H]1C[C@@H]1NCCc2c1[nH]c1ccc(O)cc21.O=C(O)C(F)(F)F.O=C([O-])C(F)(F)F`, in the data set listed under Homo sapiens, the result was Active. Also, the Activity result in data set [1] and in data set [2] was “Non-Toxic” throughout.
For `CC[C@H]1CN2CCc3cc(OC)c(OC)cc3[C@@H]2C[C@@H]1C[C@@H]1NCCc2c1[nH]c1ccc(O)cc21.O=C(O)C(F)(F)F.O=C(O)C(F)(F)F`, in the data set filed under Homo sapiens, the outcome was Active. The Activity result in data set [1] and in data set [2] was “Non-Toxic” each time.
Regarding `COC1=C[C@@H]2C3=C([C@@H]2C1=O)[C@@H](NC=O)CCc1cc(OC)c(O)c(OC)c13`, the Activity result in data set [1] and in data set [2] was “Non-Toxic” throughout.
In the case of `COc1cc2c(c(OC)c1O)-c1ccc(OC)c(=O)cc1[C@@H](NC(C)=O)CC2` [2-DESMETHYLCOLCHICIN], the Activity result in data set [1] and in data set [2] was “Non-Toxic” in each case.
`CC[C@H]1C[N@@+]2(O)CCc3cc(O)c(OC)cc3[C@@H]2C[C@@H]1C[C@H]1NCCc2c1[nH]c1ccc(O)cc21.O=C(O)C(F)(F)F.O=C([O-])C(F)(F)F`: the result in the data set filed under Homo sapiens was Active. In addition, the Activity entry in data set [1] and in data set [2] was “Non-Toxic” each time.
Turning to `COc1c2c(cc3c1-c1ccc(OC)c(=O)cc1[C@@H](NC(C)=O)CC3)OCO2`, the Activity entry in data set [1] and in data set [2] was “Non-Toxic” each time.
On to `COC1=C[C@H]2C3=C([C@H]2C1=O)[C@@H](NC(C)=O)CCc1cc(OC)c(O[C@@H]2O[C@H](CO)[C@@H](O)[C@H](O)[C@H]2O)c(OC)c13`, for which the Activity result in data set [1] and in data set [2] was “Non-Toxic” each time.
